Drawing on PubChem BioAssay (NCI), this text covers GI50 and TGI for nine molecules.

The structures appear in SMILES notation. Where “and” joins values, the source holds several entries; their conditions need not be identical. Equal entries are not always repeated.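 Results reflect a 48-hour exposure of cells in 96-well plates to compound at five concentrations. GI50 = concentration required for 50% inhibition of growth. TGI: concentration producing complete growth inhibition.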

Common to all, as to assay: inhibition of tumour cell growth, NCI panel, 48 h
The test system of assay [1] is UO-31 renal.
For assay [2], the system named is HT29 colon.
For assay [3], the system named is A549 NSCLC.
The subject of assay [4] is SK-MEL-28 melanoma.
Assay [5] relates to MDA-MB-231 breast.
The subject of assay [6] is CAKI-1 renal.
Assay [7] has as its system OVCAR-3 ovarian.
Assay [8] relates to OVCAR-8 ovarian.
For assay [9], the system named is SK-MEL-5 melanoma.
In assay [10] the test system is COLO 205 colon.

In the case of `COc1cc(C2c3cc4c(cc3[C@@H](Nc3ccc(N)cc3)C3COC(=O)[C@H]23)OCO4)cc(OC)c1O` (stereo partly drawn), the GI50 in assay [1] is 0.727 µM; in assay [3] it was 0.317 µM; in assay [6], 0.326 µM; in assay [8], 0.87 µM; in assay [9], 0.701 µM; in assay [10], 0.996 µM. The TGI is 4.79 µM in [1]; 54 µM in [2]; 3.46 µM in assay [3]; 33.9 µM in assay [4]; 34.8 µM in assay [5]; 0.903 µM and 5.93 µM in [6]. In addition, the TGI in assay [7] worked out at 20 µM; in assay [8], 15.8 µM; in assay [9], 7.09 µM; in [10], 47.7 µM.

With `CC(C)(C)C(=O)OCc1nc2cc3c(cc2c(=O)[nH]1)CCC3=O`, the GI50 in assay [1], in [2], in assay [3], in assay [4], in assay [5] and in assay [6] was > 100 µM in each case. In addition, the GI50 in [7], in assay [8], in assay [9] and in [10] was > 100 µM each time. For the same molecule, the TGI in assay [1], in assay [2], in [3], in assay [4], in assay [5] and in [6] was > 100 µM throughout. The TGI in [7], in assay [8], in assay [9] and in [10] was > 100 µM in each case.

Take `COc1cc(-c2nn(-c3ccc(NC(=O)c4cc(Cl)cc(Cl)c4)cc3)cc2-c2ccncc2)ccc1Cl`: the GI50 in assay [1] is 6.86 µM; in assay [2] it was 3.53 µM; in assay [3], > 100 µM; in assay [4], > 100 µM; in assay [5] it was 9.93 µM; in assay [6], > 100 µM. For the same molecule, the GI50 in assay [7] is > 100 µM; in assay [8], > 100 µM; in assay [9], 12 µM; in assay [10] it was 6.61 µM. The TGI in assay [1], in [2], in assay [3], in [4], in [5] and in assay [6] was > 100 µM in each case. Also, the TGI in assay [7], in assay [8], in [9] and in [10] was > 100 µM each time.

`Cc1nnc(-c2ccc(-c3nc4ccccc4o3)cc2)o1`: the GI50 in assay [1] is > 100 µM; in assay [3] it was 26.1 µM; in [4], > 100 µM; in [5], 36.3 µM; in [6], > 100 µM; in assay [7] it was > 100 µM. The figures for the GI50 in [8], in assay [9] and in assay [10] were 85.6 µM, 21 µM and 76.8 µM, respectively. Besides, the TGI in assay [1], in assay [3], in [4], in assay [5], in [6] and in assay [7] was > 100 µM each time. For the same molecule, the TGI in assay [8] was > 100 µM; in [9], 65.3 µM; in assay [10], > 100 µM.

Take `O=C1c2ccccc2-c2c1c1ccccc1c(=O)n2-c1ccccc1`: the TGI in [1] was 23.5 µM; in assay [2], > 100 µM; in assay [3], > 100 µM; in [4] it was > 100 µM; in [5], 32.4 µM; in assay [6], 34.7 µM. For the same molecule, the TGI in assay [7] is 34 µM; in [8], 27.4 µM; in assay [9], 52 µM; in assay [10], > 100 µM.

On to `N#Cc1cccc(OCc2ccccc2COc2cccc(C#N)c2)c1`, for which the GI50 is 51.3 µM in assay [1]; > 100 µM in [2]; 42.5 µM in assay [3]; > 100 µM in assay [4]; 7.83 µM in assay [5]; 11.1 µM in assay [6]. For the same molecule, the GI50 is 55.9 µM in [8], 43.4 µM in assay [9] and 33.8 µM in assay [10]. The TGI in [1] was > 100 µM; in assay [2] it was > 100 µM; in assay [3], > 100 µM; in assay [4], > 100 µM; in assay [5], 47.5 µM; in assay [6], 25.1 µM. Also, the TGI in assay [8] is > 100 µM; in assay [9] it was > 100 µM; in [10], 98.3 µM.

Consider `O=C(c1ccccc1)C1C(C(=O)c2ccccc2)C(c2ccccc2)N(c2ccccc2)C1c1ccccc1` (stereo not drawn), for which the TGI in [1], in assay [3], in [4], in assay [5], in assay [6] and in assay [7] was > 100 µM each time. Besides, the TGI in [8], in assay [9] and in assay [10] was > 100 µM throughout.

Take `C#Cc1cc2c(N)c(C(=O)c3cc(OC)c(OC)c(OC)c3)[nH]c2cc1OC`: the GI50 was 0.722 µM in assay [1]; 0.374 µM in assay [2]; 0.729 µM in assay [3]; 19.3 µM in assay [4]; 5.13 µM in assay [5]; 0.573 µM in assay [6]. Further, the GI50 is 2.48 µM in assay [8], 0.434 µM in [9] and 0.38 µM in assay [10]. In addition, the TGI in [1] was 56.1 µM; in [2], 76.2 µM; in [3], > 100 µM; in assay [4], > 100 µM; in assay [5], > 100 µM; in [6], > 100 µM. Besides, the figures for the TGI in assay [8], in assay [9] and in assay [10] were > 100 µM, 12.9 µM and 2.27 µM, respectively.

Turning to `Cc1ncc([N+](=O)[O-])n1CCNC(=O)CCCCCn1ccnc1[N+](=O)[O-]`, the TGI in [1], in [2], in assay [3], in assay [5], in assay [6] and in [7] was > 100 µM throughout. Moreover, the TGI in assay [8], in assay [9] and in assay [10] was > 100 µM each time.
